Data set [1] concerns CD8+ T cell. The conditions noted are these: compared with NY p81; Non-Patent Document 8; cited from earlier work.
Data set [2] concerns NY p81 specific CD8+ T cells. The data set is described as follows: Specific CD8+ T cell induction in mice, intracellular cytokine staining (NY p81 epitope). It is filed as in vivo, BALB/c mice. The note with it: FIG. 5; ESO1 LP vaccines complexed with CHP, CpG oligo DNA. An excerpt: (§1) A long chain peptide antigen ESO1 LP (native type) (Sequence No. 16) and a long chain peptide antigen ESO1 LP (Y6) (Sequence No. 17), both containing a mouse CD8+ T cell epitope sequence (NY p81 or NY p82) and a mouse CD4+ T cell epitope sequence (NY p91) that are derived from human NY-ESO-1 antigen, were synthesized. As the interepitope sequence between epitopes, the native amino acid sequence of NY-ESO-1 was retained in the ESO1 LP (native type) and the sequence of six consecutive tyrosines (Y6) was used in the ESO1 LP (Y6). Vaccines containing the respective long chain peptide antigens were administered to mice in the same manner as in FIG. 1 and the frequencies of CD8+ T cells and CD4+ T cells specific to the respective epitope sequences were measured by the intracellular cytokine staining method.
Long chain peptide antigens MEN, all containing three types of mouse CD8+ T cell epitope sequences (MA p265 (Sequence No. 27), NY p81 (Sequence No. 29), and mERK2 9m (Sequence No. 28)), were synthesized. The interepitope sequences between the respective epitopes were one to six consecutive tyrosines (Sequence Nos. 1 and 9-12). Vaccines containing the respective long chain peptide antigens were administered to mice in the same manner as in FIG. 1 and the frequencies of CD8+ T cells specific to the respective epitope sequences were measured by the intracellular cytokine staining method.
Long chain peptide antigens MEN, all containing three types of mouse CD8+ T cell epitope sequences (MA p265 (Sequence No. 27), NY p81 (Sequence No. 29), and mERK2 9m (Sequence No. 28)), were synthesized. The interepitope sequences between the respective epitopes were five to ten consecutive tyrosines (Sequence Nos. 1 and 13-15). Vaccines containing the respective long chain peptide antigens were administered to mice in the same manner as in FIG. 1 and the frequencies of CD8+ T cells specific to the respective epitope sequences were measured by the intracellular cytokine staining method. […]

Data set [3] deals with NY p91 specific CD4+ T cells. Nature of the data set: Specific CD4+ T cell induction in mice, intracellular cytokine staining (NY p91 epitope). The format is in vivo, BALB/c mice. The conditions noted are these: FIG. 5; ESO1 LP vaccines complexed with CHP, CpG oligo DNA.
Description: as §1
Each CHP/long chain peptide complex as the vaccine and the CpG oligo DNA as the adjuvant were administered at the same time to a mouse. Administration was performed by subcutaneous injection on the back of the mouse. As the dose, the CHP/long chain peptide complex was administered at 0.05 to 0.1 mg equivalent of long chain peptide per administration. […]
The mouse spleen cells were added at 5×10^6 cells/0.5 mL per well to a 24-well culture plate (Nunc). […] The cells were analyzed by a flow cytometer (FACS Canto II, BD Biosciences) using the included analysis software (FACSDiva).

For data set [4], the system named is NY p157 specific CD8+ T cell clone 1G4 cells. The data set is described as follows: Antigen presentation by LCL electroporated with mRNA vaccine, IFN-γ ELISPOT (1G4). It is filed as cell-based, human. The note with it: FIG. 11; mRNA introduced into LCL by electroporation. How it is done:
(§2) The interepitode sequences between the respective epitopes were the six consecutive amino acids shown in FIG. 11, namely sequence Nos. 31-34. Each mRNA was introduced in vitro as a vaccine into LCL by electroporation. Using these LCL as the antigen-presenting cells, they were co-cultured with CD8+ T cell clone 1G4 cells specific to NY p157 or CD8+ T cell clone RNT007#45 cells specific to MA4 p143 and the activation of the CD8+ T cells due to antigen presentation was measured by the IFN-γ ELISPOT method.
(§3) mRNA was introduced by an electroporation method (300V, 700 μs) using ECM830 into LCL that was rinsed and suspended in the same manner as in (9). The cells were cultured for 24 hours at 37° C. in the presence of 5% CO2 and then used as antigen-presenting cells.
(§4) 75 μL aliquots of anti-IFN-γ antibody for capture, diluted to an appropriate concentration, were dispensed into a 96-well plate (Millipore Corp., Multiscreen HA, MAHAS4510) specially designed for ELISPOT and left to stand overnight at 4° C. After discarding the liquid and rinsing with RPMI medium, 100 μL aliquots of RPMI medium containing 10% fetal bovine serum were dispensed and the plate was left to stand for not less than 1 hour at 37° C. The liquid was discarded, and the LCL prepared in (9) or (10) was adjusted to 5×10^4 cells/100 μL/well and added to each well. […]

The test system of data set [5] is MA4 p143 specific CD8+ T cell clone RNT007 #45 cells. Nature of the data set: Antigen presentation by LCL electroporated with mRNA vaccine, IFN-γ ELISPOT (RNT007 #45). The format is cell-based, human. The note with it: FIG. 11; mRNA introduced into LCL by electroporation. How it is done: as §2, §3, §4

For “GPESRLL (Peptide sequence containing mouse CD8+ T cell epitope, NY p82)”, the immunogenicity result in data set [1] was “poorer in immunogenicity than NY p81”.

“GARGPESRLLEFYLAMPFATPMEAELARRSLAQDAPPLPV [ESO1 LP (native type), reference compound]”: the “induction of NY p81 specific CD8+ T cells” value in data set [2] is listed as “hardly observed”. For the same molecule, the “induction of NY p91 specific CD4+ T cells” value in data set [3] was “clearly observed”. With “GPESRLLYYYYYYYLAMPFATPMEAELARRSLA (Long chain peptide antigen, containing a mouse CD8+ T cell epitope sequence (NY p81) and a mouse CD4+ T cell epitope sequence (NY p91)) [ESO1 LP (Y6)]”, the “induction of NY p81 specific CD8+ T cells” value in data set [2] is reported as “significant”. The “induction of NY p91 specific CD4+ T cells” value in data set [3] is on record as “clearly observed”.

B1: NMW(Y6) mRNA: mRNA (RNA vaccine) from template cDNA Sequence No. 31, encoding long chain peptide antigen NMW with Y6 interepitope sequence (nucleic acid)
DNA: GGATCCATGAGCCTCCTGATGTGGATTACCCAATGCTATTACTACTATTACTACAACTATAAGAGATGTTTCCCCGTGATCTATTACTACTACTACTATTGCTATACATGGAATCAGATGAACCTGTGAGAATTC
modifications: mRNA transcribed from template cDNA; DNA sequence of a long chain peptide antigen, containing three types of human CD8+ T cell recognition epitope sequences (NY p157, MA4 p143, and WT1 p235)
Take B1: the “activation of 1G4 cells” value in data set [4] is “clearly confirmed”. Further, the “activation of RNT007 #45 cells” value in data set [5] is “clearly confirmed”.

Source of the values: US11179450B2, “Long chain antigen containing interepitope sequence that promotes antigen presentation to T cells” (MIE UNIVERSITY, priority 2013, dated 2021).
